Test results taken from PMC5028030, “Costimulatory Effects of an Immunodominant Parasite Antigen Paradoxically Prevent Induction of Optimal CD8 T Cell Protective Immunity” (PLoS Pathogens, 2016).
Entries after “also recorded” stand apart in the source; their conditions may differ. Peptide text beside a SMILES is read from it.

Tests used:
[1] = system: CD4^+ T cells; parameters: method as in manuscript in preparation; settings: after TS vaccination; I-A^d-restricted; ref manuscript in preparation; cited from earlier work
[2] = molecular target: WT TS (Trypanosoma cruzi, UniProt P23253); test: Inhibition of TS enzymatic activity (MuNANA hydrolysis); assay type: biochemical
Experimental: (§1) Fig 6 TS enzymatic activity is associated with costimulatory effects. In panel A, enzymatic activities of WT and TSKd1 mutant proteins were determined in lysates and supernatants of 293T cells transfected with WT TS and TSKd1 null DNA using fluorometric TS enzymatic activity assays. […] CD8^+ T cells from naïve 4–5 week old BALB/c mice were purified by positive magnetic bead selection and incubated with suboptimal doses of PMA (12.5ng/ml) ± WT or TSKd1 null rTS. After 3 days, proliferation was measured by ^3H-Thymidine incorporation. Shown are incorporated ^3H-Thymidine counts per minute (CPM) above suboptimal PMA treatment alone. […]
Trans-sialidase enzymatic activity was assayed as described previously. […] The acid elutions were incubated at 95°C for 45 minutes, the reactions neutralized with glycine/NaOH (pH 10) and released 4-MU measured by fluorescence emission at 450nm and compared to a standard curve. […] The reaction was continuously monitored in a SpectraMax i3 Multi-Mode Detection Platform (Molecular Devices) after pre-incubation of the enzyme with the peptide for 10 min at room temperature. The residual activity at each concentration of TSKd1 was obtained by dividing the slope calculated at each concentration of TSKd1 (Vi) by the initial velocity determined in the absence of peptide (V0). […]

[3] = system: naïve CD8^+ T cells; test: CD8^+ T cell costimulation assay; assay type: cell-based, BALB/c mouse; settings: inhibitor added to TS/PMA activated CD8^+ T cell cultures
Experimental: as §1, with “alone. Similar TS costimulation assays using naïve CD8^+ T cells were conducted with CD45 inhibitor PTP or Src-family kinase inhibitor PP2 added (C). In panel D, increasing concentrations of TSKd1 peptide were added to constant amounts of WT TS in TS enzyme assays.” for “alone.”
CD8^+ T cells purified by positive Miltenyi magnetic bead selection from naïve 4–5 week old BALB/c mice were added to 96-well flat bottom plates (2x10^5 cells/well) and stimulated with suboptimal doses of PMA (12.5 ng/ml) with or without recombinant WT vs TSKd1 null TS protein (25–100 μg/ml) similar to TS costimulatory assays conducted previously. […] Ultima Gold F scintillation fluid was added and filtermats counted using a Perkin Elmer TriLux MicroBeta 1450 instrument. […]

Sequence of WT TS (P23253 whole entry): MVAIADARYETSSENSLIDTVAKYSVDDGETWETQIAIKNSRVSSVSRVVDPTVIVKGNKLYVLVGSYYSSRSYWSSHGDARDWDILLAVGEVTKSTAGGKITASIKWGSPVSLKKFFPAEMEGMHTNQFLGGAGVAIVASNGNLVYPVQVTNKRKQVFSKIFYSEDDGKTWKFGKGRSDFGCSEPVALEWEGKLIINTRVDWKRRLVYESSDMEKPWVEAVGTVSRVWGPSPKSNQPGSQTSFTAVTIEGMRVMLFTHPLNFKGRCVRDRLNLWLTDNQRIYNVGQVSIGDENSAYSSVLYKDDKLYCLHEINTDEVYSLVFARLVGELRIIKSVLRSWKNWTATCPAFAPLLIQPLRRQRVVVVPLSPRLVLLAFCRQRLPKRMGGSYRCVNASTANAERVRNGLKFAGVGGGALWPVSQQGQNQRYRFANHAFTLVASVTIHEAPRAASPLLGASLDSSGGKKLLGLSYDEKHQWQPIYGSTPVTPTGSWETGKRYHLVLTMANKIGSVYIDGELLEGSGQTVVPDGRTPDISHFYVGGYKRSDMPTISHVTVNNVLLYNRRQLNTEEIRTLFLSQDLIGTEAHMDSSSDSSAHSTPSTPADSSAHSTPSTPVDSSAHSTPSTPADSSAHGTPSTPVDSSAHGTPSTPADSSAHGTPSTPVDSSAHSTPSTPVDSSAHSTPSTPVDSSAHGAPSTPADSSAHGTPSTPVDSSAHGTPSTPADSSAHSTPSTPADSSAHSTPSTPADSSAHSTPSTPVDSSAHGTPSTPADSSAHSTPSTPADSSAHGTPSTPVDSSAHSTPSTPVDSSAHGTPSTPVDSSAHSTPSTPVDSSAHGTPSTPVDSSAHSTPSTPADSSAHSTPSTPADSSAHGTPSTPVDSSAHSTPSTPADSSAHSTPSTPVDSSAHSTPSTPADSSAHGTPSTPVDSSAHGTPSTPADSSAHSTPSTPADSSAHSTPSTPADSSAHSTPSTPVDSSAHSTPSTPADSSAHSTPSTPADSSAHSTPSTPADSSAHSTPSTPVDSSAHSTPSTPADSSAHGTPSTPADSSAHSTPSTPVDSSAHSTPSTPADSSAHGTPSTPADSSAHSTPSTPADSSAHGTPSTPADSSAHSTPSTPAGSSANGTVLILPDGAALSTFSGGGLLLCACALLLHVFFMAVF

Question: For KVTERVVHSFRLPALVNV [p7], which “CD4^+ T cell response to peptide” value [1] is on record?
Answer: Its value is “most potent CD4^+ T cell responses of any peptide tested”.

Question: Which IC50 [2] does the source give for `CC[C@H](C)[C@H](N)C(=O)N[C@@H](Cc1ccc(O)cc1)C(=O)N[C@@H](CC(N)=O)C(=O)N[C@H](C(=O)NCC(=O)N[C@@H](CCC(N)=O)C(=O)N[C@H](C(=O)N[C@@H](CO)C(=O)N[C@H](C(=O)O)[C@@H](C)CC)C(C)C)C(C)C` [TSKd1, IYNVGQVSI] (H-IYNVGQVSI-OH) here?
Answer: Its IC50 is 20 ± 3 µM.

Question: For `CC(C)(C)C(=O)Nc1ccc2c(c1)C(=O)C(=O)c1ccccc1-2` [PTP, N-[(9-10-dioxo-9,10-dihydro-phenanthren-2-yl)-2,2-dimethyl-propionamide]], which “inhibition of TS costimulatory activity” value [3] is on record?
Answer: Its value is “blocked; also recorded: prevent co-stimulation of naïve CD8^+ T cells”.
